Measurements as given in patent EP4624471A1, “PKMYT1 INHIBITOR, PREPARATION METHOD THEREFOR, AND PHARMACEUTICAL COMPOSITION AND USE THEREOF” (Shanghai Qilu Pharmaceutical Research and Development …, priority 2022, dated 2024).
pIC50: −log10 of the molar value. Where two headings read alike, the source gives them in different places.

Target: T1, PKMYT1 enzyme (Homo sapiens, UniProt Q99640)
T1 construct: purchased Thermo Scientific A33387
T1 sequence (Q99640 1-499): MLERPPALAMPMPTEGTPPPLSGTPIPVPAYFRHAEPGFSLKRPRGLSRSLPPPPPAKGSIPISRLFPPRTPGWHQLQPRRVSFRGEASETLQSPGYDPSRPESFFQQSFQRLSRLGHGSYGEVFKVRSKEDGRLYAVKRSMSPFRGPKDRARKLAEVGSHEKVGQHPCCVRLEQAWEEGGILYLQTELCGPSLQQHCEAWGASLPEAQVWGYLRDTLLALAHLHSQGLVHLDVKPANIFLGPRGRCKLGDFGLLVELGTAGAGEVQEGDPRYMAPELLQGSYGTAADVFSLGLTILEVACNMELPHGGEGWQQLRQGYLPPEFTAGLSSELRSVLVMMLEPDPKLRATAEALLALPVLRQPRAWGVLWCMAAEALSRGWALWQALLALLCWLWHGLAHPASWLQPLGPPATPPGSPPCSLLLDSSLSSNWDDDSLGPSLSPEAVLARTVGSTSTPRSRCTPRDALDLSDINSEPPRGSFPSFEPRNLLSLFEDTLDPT
Assay: PKMYT1 enzyme inhibition activity, ADP-GLO method
Type: biochemical

[1] = PKMYT1 enzyme 10 nM, ATP 5 µM, 37°C 90 minutes; read-out: ADP-GLO IC50
[2] = read-out: ADP-GLO IC50; PKMYT1 enzyme 10 nM, ATP 5 µM, 37°C 90 minutes

Protocol: Enzyme inhibition activity of compounds of the present disclosure
The enzyme activity of some of the example compounds was verified using the ADP-GLO method.
PKMYT1 enzyme protein was purchased from Thermo Scientific (Cat. No.: A33387), and the ADP-GLO kit was purchased from Promega (Cat. No.: V9103).
PKMYT1 enzyme activity reaction buffer: 70 mM HEPES, 3 mM MgCl2, 3 mM MnCl2, 50 µg mL-1PEG20000, 3 µM sodium orthovanadate, 1.2 mM DTT.
The reaction plate with the added compounds was centrifuged at 2500 rpm for 1 minute.
The prepared enzyme solution was added to the reaction plate, 5 µL per well, and the final concentration of enzyme was 10 nM. The reaction plate was centrifuged at 1000 rpm for 1 minute. The reaction plate was placed in an incubator at 37°C for 15 minutes.
The prepared ATP substrate solution was added to the reaction plate, 5 µL per well, and the final concentration of ATP was 5 µM. The reaction plate was centrifuged at 1000 rpm for 1 minute. After sealing the plate with aluminum foil, the plate was placed in an incubator and the reaction was carried out at 37°C for 90 minutes.
10 µL of ADP-glo™ reagent was added to stop the kinase reaction and consume unconsumed ATP, leaving only ADP and a very low ATP background. The reaction plate was centrifuged at 1000 rpm for 1 minute. After sealing the plate with aluminum foil, the reaction was carried out at room temperature for 60 minutes.
ADP was converted to ATP by adding 20 µL of kinase detection reagent, and luciferase and luciferin were introduced to detect ATP. The reaction plate was centrifuged at 1000 rpm for 1 minute. After sealing the plate with aluminum foil, the reaction was carried out at room temperature for 60 minutes.
The ADP-GLO luminescence signal values were read by the microplate reader PHERAstar, and the readings were analyzed.

Structure (SMILES) | pIC50 [1] | pIC50 [2]
COc1ncc2c(C(N)=O)c(N)n(-c3c(C)ccc(O)c3C)c2n1 [Example 46, 6-Amino-7-(3-hydroxy-2,6-dimethylphenyl)-2-methoxy-7H-pyrrolo[2,3-d]pyrimidine-5-carboxamide] | 7.36 | 
C#Cc1ncc2c(C(N)=O)c(N)n(-c3c(C)ccc(O)c3C)c2n1 [Example 47, 6-Amino-2-ethynyl-7-(3-hydroxy-2,6-dimethylphenyl)-7H-pyrrolo[2,3-d]pyrimidine-5-carboxamide] | 7.89 | 
Cc1cc2c(C(N)=O)c(N)n(-c3c(C)c(O)cc(Cl)c3C)c2nc1C [Example 48, 2-Amino-1-(3-chloro-5-hydroxy-2,6-dimethylphenyl)-5,6-dimethyl-1H-pyrrolo[2,3-b]nicotinamide] | 7.43 | 
Cc1cc2c(C(N)=O)c(N)n(-c3c(C)cnc(O)c3C)c2nc1C [Example 50, 2-Amino-1-(2-hydroxy-3,5-dimethylpyridin-4-yl)-5,6-dimethyl-1H-pyrrolo[2,3-b]pyridine-3-carboxamide] | 6.66 | 
Cc1cc2c(C(N)=O)c(N)n(-c3c(C)c(C)cc(O)c3C)c2nc1C [Example 53, 2-Amino-1-(3-hydroxy-2,5,6-trimethylphenyl)-5,6-dimethyl-1H-pyrrolo[2,3-b]pyridine-3-carboxamide] | 6.71 | 
Cc1cc2c(C(N)=O)c(N)n(-c3c(C)c(O)c(F)c(F)c3C)c2nc1C [Example 54] | 7.76 | 
Cc1ccc(O)c(C)c1-n1c(N)c(C(N)=O)c2cnc(CC(C)C)nc21 [Example 57, 6-Amino-7-(3-hydroxy-2,6-dimethylphenyl)-2-isobutyl-7H-pyrrolo[2,3-d]pyrimidine-5-carboxamide] | 8.52 | 
Cc1cc(F)c(O)c(C)c1-n1c(N)c(C(N)=O)c2cc(C(F)(F)F)c(C)nc21 [Example 59, 2-Amino-1-(4-fluoro-3-hydroxy-2,6-dimethylphenyl)-6-methyl-5-(trifluoromethyl)-1H-pyrrolo[2,3-b]pyridine-3-carboxamide] | 8.06 | 
CCc1nc(C)nc2c1c(C(N)=O)c(N)n2-c1c(C)c(O)cc(F)c1C [Example 61] | 7.41 | 
Cc1ccc(O)c(C)c1-n1c(N)c(C(N)=O)c2cnc(-c3ccc(F)cc3)nc21 [Example 64] | 7.80 | 
Cc1ncc2c(C(N)=O)c(N)n(-c3c(C)cc(F)c(O)c3C)c2n1 [Example 65] | 7.62 | 
CCc1nc(C)nc2c1c(C(N)=O)c(N)n2-c1c(C)cc(F)c(O)c1C [Example 67] | 7.26 | 
CCc1ccc(O)c(C)c1-n1c(N)c(C(N)=O)c2cnc(C)nc21 [Example 68] | 6.52 | 
COc1nc(C)nc2c1c(C(N)=O)c(N)n2-c1c(C)ccc(O)c1C [Example 69] |  | 7.81
Cc1cc2c(C(N)=O)c(N)n(-c3c(C)c(O)cc(F)c3C)c2c(F)c1C [Example 70] | 7.47 | 
Cc1ccc(O)c(C)c1-n1c(N)c(C(N)=O)c2c(F)nc(C)c(F)c21 [Example 72] | 8.01 | 
Cc1cc2c(C(N)=O)c(N)n(-c3c(C)cc(F)c(O)c3C)c2nc1F [Example 73] | 7.87 | 
Cc1cc2c(C(N)=O)c(N)n(-c3c(C)cc(F)c(O)c3C)c2nc1Cl [Example 74] | 8.15 | 
CCNc1ncc2c(C(N)=O)c(N)n(-c3c(C)ccc(O)c3C)c2n1 [Example 75] | 8.26 | 
Cc1ccc(O)c(C)c1-n1c(N)c(C(N)=O)c2cnc(NC3CCCC3)nc21 [Example 76] | 8.40 | 
Cc1ccc(O)c(C)c1-n1c(N)c(C(N)=O)c2cnc(NCC(F)F)nc21 [Example 77] | 7.69 | 
Cc1ccc(O)c(C)c1-n1c(N)c(C(N)=O)c2cnc(/C=C/C3CC3)nc21 [Example 78] |  | 8.08
C/C=C/c1ncc2c(C(N)=O)c(N)n(-c3c(C)ccc(O)c3C)c2n1 [Example 79] | 8.32 | 

Structure (SMILES) | pIC50 [1] | pIC50 [2]
Cc1c(O)cc(F)c(C)c1-n1c(N)c(C(N)=O)c2cc(F)cnc21 [Example 82] | 8.27 | 
CCCN(CC)c1ncc2c(C(N)=O)c(N)n(-c3c(C)ccc(O)c3C)c2n1 [Example 83] | 7.38 | 
Cc1ccc(O)c(C)c1-n1c(N)c(C(N)=O)c2cnc(NC3CC3)nc21 [Example 84] | 8.28 | 
CNc1ncc2c(C(N)=O)c(N)n(-c3c(C)ccc(O)c3C)c2n1 [Example 85] | 8.17 | 
Cc1ccc(O)c(C)c1-n1c(N)c(C(N)=O)c2cnc(CCC3CC3)nc21 [Example 86] | 8.26 | 
CCCc1ncc2c(C(N)=O)c(N)n(-c3c(C)ccc(O)c3C)c2n1 [Example 87] | 8.47 | 
Cc1ccc(O)c(C)c1-n1c(N)c(C(N)=O)c2cnc(C3CCC(F)(F)CC3)nc21 [Example 88] | 7.80 | 
Cc1cnc2c(c1)c(C(N)=O)c(N)n2-c1c(C)c(O)cc(F)c1C [Example 89] | 8.52 | 
Cc1nc2c(cc1C(=O)O)c(C(N)=O)c(N)n2-c1c(C)c(O)cc(F)c1C [Example 90] | 7.04 | 
Cc1ccc(O)c(C)c1-n1c(N)c(C(N)=O)c2cc(NC(=O)Nc3ccccc3)c(C)nc21 [Example 91] | 7.38 | 
COc1c(O)ccc(C)c1-n1c(N)c(C(N)=O)c2cc(C)c(C)nc21 [Example 94] | 6.39 | 
Cc1cc2c(C(N)=O)c(N)n(-c3c(C)ccc(O)c3C)c2nc1N [Example 95] | 8.02 | 
Cc1cc(F)c(O)c(C)c1-n1c(N)c(C(N)=O)c2cc(OC3CCC3)c(C)nc21 [Example 96] | 8.03 | 
Cc1cc2c(C(N)=O)c(N)n(-c3c(C)cc(Br)c(O)c3C)c2nc1C [Example 97] | 6.73 | 
Cc1c(O)cc(F)c(C)c1-n1c(N)c(C(N)=O)c2cc(C#N)cnc21 [Example 98] | 8.09 | 
Cc1cc2c(C(N)=O)c(N)n(-c3c(C)c(F)cc(O)c3F)c2nc1C [Example 107] | 7.85 | 
Cc1c(O)cc(F)c(C)c1-n1c(N)c(C(N)=O)c2cc(N3CCOCC3)cnc21 [Example 117] | 6.72 | 
Cc1cc2c(C(N)=O)c(N)n(-c3c(C)c(O)cc(F)c3C)c2nc1-c1ccnn1C [Example 124] | 7.98 | 
Cc1cc2c(C(N)=O)c(N)n(-c3c(C)c(O)cc(F)c3C)c2nc1-c1ccccc1 [Example 137] | 7.44 | 
C=C(C)c1nc2c(cc1C)c(C(N)=O)c(N)n2-c1c(C)c(O)cc(F)c1C [Example 138] | 7.57 | 
Cc1cc2c(C(N)=O)c(N)n(-c3c(C)c(O)cc(F)c3C)c2nc1C(C)C [Example 139] | 6.84 | 
CCc1cnc2c(c1)c(C(N)=O)c(N)n2-c1c(C)cc(F)c(O)c1C [Example 140] | 8.11 | 
Cc1cc(F)c(O)c(C)c1-n1c(N)c(C(N)=O)c2cc(C(C)(C)O)cnc21 [Example 145] | 7.61 | 

Structure (SMILES) | pIC50 [1] | pIC50 [2]
COC(C)(C)c1cnc2c(c1)c(C(N)=O)c(N)n2-c1c(C)cc(F)c(O)c1C [Example 146] | 7.45 | 
Cc1cc(F)c(O)c(C)c1-n1c(N)c(C(N)=O)c2cc(CC(C)C)cnc21 [Example 147] | 7.87 | 
C=Cc1cnc2c(c1)c(C(N)=O)c(N)n2-c1c(C)cc(F)c(O)c1C [Example 148] | 8.14 | 
COc1cnc2c(c1)c(C(N)=O)c(N)n2-c1c(C)cc(F)c(O)c1C [Example 149] | 7.90 | 
Cc1cc2c(C(N)=O)c(N)n(-c3c(C)cc(F)c(O)c3C)c2nc1CC(C)C [Example 151] | 7.70 | 
C=C(C)c1nc2c(cc1C)c(C(N)=O)c(N)n2-c1c(C)cc(F)c(O)c1C [Example 152] | 7.32 | 
C=C(C)c1cnc2c(c1)c(C(N)=O)c(N)n2-c1c(C)cc(F)c(O)c1C [Example 155] | 7.63 | 
C=C(C)c1cc2c(C(N)=O)c(N)n(-c3c(C)cc(F)c(O)c3C)c2nc1C [Example 156] | 7.58 | 
C=CCCc1cc2c(C(N)=O)c(N)n(-c3c(C)cc(F)c(O)c3C)c2nc1C [Example 157] | 7.22 | 
Cc1cc(F)c(O)c(C)c1-n1c(N)c(C(N)=O)c2cc(OC(C)C)c(C)nc21 [Example 160] | 8.11 | 
Cc1cc(F)c(O)c(C)c1-n1c(N)c(C(N)=O)c2cc(CO)c(C)nc21 [Example 164] | 8.15 | 
Cc1cc(F)c(O)c(C)c1-n1c(N)c(C(N)=O)c2cc(C3=CCOCC3)c(C)nc21 [Example 165] | 7.48 | 
COc1nc2c(cc1C)c(C(N)=O)c(N)n2-c1c(C)cc(F)c(O)c1C [Example 167] | 7.66 | 
Cc1cc(F)c(O)c(C)c1-n1c(N)c(C(N)=O)c2cc(S(C)(=O)=O)c(C)nc21 [Example 168] | 8.31 | 
COC(C)(C)c1cc2c(C(N)=O)c(N)n(-c3c(C)cc(F)c(O)c3C)c2nc1C [Example 171] | 7.57 | 
Cc1cc(F)c(O)c(C)c1-n1c(N)c(C(N)=O)c2cc(CC(F)(F)F)c(C)nc21 [Example 174] | 8.33 | 
Cc1ccc(O)c(C)c1-n1c(N)c(C(N)=O)c2cc3c(nc21)OC(F)(F)O3 [Example 178] | 7.81 | 
Cc1cc(F)c(O)c(C)c1-n1c(N)c(C(N)=O)c2cc3ccccc3nc21 [Example 180] | 7.52 | 
Cc1c(O)cc(F)c(C)c1-n1c(N)c(C(N)=O)c2c(C)c3c(nc21)CCC3 [Example 182] | 7.07 | 
Cc1cc(F)c(O)c(C)c1-n1c(N)c(C(N)=O)c2cc3c(nc21)CCC3 [Example 183] | 7.47 | 
Cc1cc(F)c(O)c(C)c1-n1c(N)c(C(N)=O)c2cc3c(nc21)CCO3 [Example 184] | 7.05 | 
Cc1ccc(O)c(C)c1-n1c(N)c(C(N)=O)c2c3c(c(C)nc21)OCC3 [Example 187] | 7.36 | 
[2H]C([2H])([2H])c1cc(F)c(O)c(C([2H])([2H])[2H])c1-n1c(N)c(C(N)=O)c2cc(C(F)(F)F)c(C)nc21 [Example 193] | 8.10 | 
